Tests used:
[1] = target: Receptor tyrosine-protein kinase erbB-2 (Homo sapiens) (UniProt P04626); assay: ERBB2 (HER2) Kinase screen; conditions: Compound concentration 1.0 uM
[2] = target: Dual specificity protein kinase CLK2 (Homo sapiens) (UniProt P49760); assay: CLK2 Kinase screen; conditions: Compound concentration 1.0 uM
[3] = target: Phosphorylase b kinase gamma catalytic chain, skeletal muscle/heart isoform (Homo sapiens) (UniProt Q16816); assay: PHKG1 Kinase screen; conditions: Compound concentration 1.0 uM
[4] = target: T1, Serine/threonine-protein kinase TAO3 (Homo sapiens) (UniProt Q9H2K8); assay: TAOK3 (JIK) Kinase screen; conditions: Compound concentration 1.0 uM
T1 sequence (whole entry): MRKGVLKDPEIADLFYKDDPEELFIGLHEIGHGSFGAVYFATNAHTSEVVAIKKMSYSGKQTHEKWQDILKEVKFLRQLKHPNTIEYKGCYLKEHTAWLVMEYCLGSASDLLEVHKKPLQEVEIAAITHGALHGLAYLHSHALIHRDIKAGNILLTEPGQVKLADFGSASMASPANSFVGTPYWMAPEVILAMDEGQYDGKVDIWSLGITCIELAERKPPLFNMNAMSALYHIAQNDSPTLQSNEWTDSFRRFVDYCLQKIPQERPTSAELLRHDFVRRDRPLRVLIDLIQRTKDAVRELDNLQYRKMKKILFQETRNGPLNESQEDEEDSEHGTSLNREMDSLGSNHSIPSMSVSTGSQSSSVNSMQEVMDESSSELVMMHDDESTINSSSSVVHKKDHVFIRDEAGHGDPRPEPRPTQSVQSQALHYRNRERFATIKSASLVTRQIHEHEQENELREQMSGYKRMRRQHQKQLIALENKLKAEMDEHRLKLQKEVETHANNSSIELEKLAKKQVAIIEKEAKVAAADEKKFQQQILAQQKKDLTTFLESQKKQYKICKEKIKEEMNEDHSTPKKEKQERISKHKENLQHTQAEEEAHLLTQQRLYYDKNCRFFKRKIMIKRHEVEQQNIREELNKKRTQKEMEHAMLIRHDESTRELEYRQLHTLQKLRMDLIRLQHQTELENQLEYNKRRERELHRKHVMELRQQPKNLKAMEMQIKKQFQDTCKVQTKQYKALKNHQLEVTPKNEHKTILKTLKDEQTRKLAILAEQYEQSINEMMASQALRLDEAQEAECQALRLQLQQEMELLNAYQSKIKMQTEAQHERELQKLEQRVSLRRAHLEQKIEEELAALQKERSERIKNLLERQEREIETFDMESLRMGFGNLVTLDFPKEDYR

[5] = target: Melanocortin receptor 3 (Homo sapiens) (UniProt P41968); assay: Inhibition of Melanocortin MC3 at 10 µM in the Eurofins-Panlabs radioligand binding assay (Eurofins_assay_251300); set-up: ligand concentration 0.035 nM; conditions: Compound concentration 10.0 uM
[6] = target: T2, Serine/threonine-protein kinase 17A (Homo sapiens) (UniProt Q9UEE5); assay: STK17A (DRAK1) Kinase screen; conditions: Compound concentration 1.0 uM
T2 sequence (whole entry): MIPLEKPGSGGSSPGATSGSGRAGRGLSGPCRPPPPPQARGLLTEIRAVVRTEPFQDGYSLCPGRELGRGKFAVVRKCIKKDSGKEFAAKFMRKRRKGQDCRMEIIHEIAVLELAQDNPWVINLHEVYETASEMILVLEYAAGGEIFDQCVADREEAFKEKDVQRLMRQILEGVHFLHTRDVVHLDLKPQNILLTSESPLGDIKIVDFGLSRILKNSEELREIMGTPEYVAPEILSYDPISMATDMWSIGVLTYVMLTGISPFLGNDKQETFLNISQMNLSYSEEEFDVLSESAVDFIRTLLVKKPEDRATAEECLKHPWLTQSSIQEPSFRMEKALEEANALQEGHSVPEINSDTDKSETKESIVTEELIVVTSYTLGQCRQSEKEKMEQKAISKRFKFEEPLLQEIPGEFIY

[7] = target: Vascular endothelial growth factor receptor 1 (Homo sapiens) (UniProt P17948); assay: FLT1 (VEGFR1) Kinase screen; conditions: Compound concentration 1.0 uM
[8] = target: Histamine H1 receptor (Homo sapiens) (UniProt P35367); conditions: Compound concentration 10.0 uM
[9] = target: Rho-associated protein kinase 1 (Homo sapiens) (UniProt Q13464); assay: ROCK1 Kinase screen; conditions: Compound concentration 1.0 uM
[10] = target: Mitogen-activated protein kinase 14 (Homo sapiens) (UniProt Q16539); assay: MAPK14 (p38 alpha) Kinase screen; conditions: Compound concentration 1.0 uM
[11] = target: Phosphodiesterase 3 (Homo sapiens) (UniProt Q14432+Q13370); assay: Inhibition of Phosphodiesterase PDE3 at compound concentration of 10.0 uM in the Eurofins-Panlabs enzyme assay (Eurofins_assay_152000); assay type: protein assay; set-up: substrate with concentration 1.01 uM [3H] cAMP + cAMP, incubation time 20 min, incubation temperature 25 C; conditions: Compound concentration 10.0 uM
[12] = target: Mitogen-activated protein kinase 14 (Homo sapiens) (UniProt Q16539); assay: Inhibition of Protein Serine/Threonine Kinase, MAPK14 (p38α) at 10 µM in the Eurofins-Panlabs enzyme assay (Eurofins_assay_176610); set-up: substrate with concentration; conditions: Compound concentration 10.0 uM
[13] = target: MAP kinase-interacting serine/threonine-protein kinase 2 (Homo sapiens) (UniProt Q9HBH9); assay: MKNK2 (MNK2) Kinase screen; conditions: Compound concentration 1.0 uM
[14] = target: T3, Inhibitor of nuclear factor kappa-B kinase subunit beta (Homo sapiens) (UniProt O14920); assay: IKBKB (IKK beta) Kinase screen; conditions: Compound concentration 1.0 uM
T3 sequence (whole entry): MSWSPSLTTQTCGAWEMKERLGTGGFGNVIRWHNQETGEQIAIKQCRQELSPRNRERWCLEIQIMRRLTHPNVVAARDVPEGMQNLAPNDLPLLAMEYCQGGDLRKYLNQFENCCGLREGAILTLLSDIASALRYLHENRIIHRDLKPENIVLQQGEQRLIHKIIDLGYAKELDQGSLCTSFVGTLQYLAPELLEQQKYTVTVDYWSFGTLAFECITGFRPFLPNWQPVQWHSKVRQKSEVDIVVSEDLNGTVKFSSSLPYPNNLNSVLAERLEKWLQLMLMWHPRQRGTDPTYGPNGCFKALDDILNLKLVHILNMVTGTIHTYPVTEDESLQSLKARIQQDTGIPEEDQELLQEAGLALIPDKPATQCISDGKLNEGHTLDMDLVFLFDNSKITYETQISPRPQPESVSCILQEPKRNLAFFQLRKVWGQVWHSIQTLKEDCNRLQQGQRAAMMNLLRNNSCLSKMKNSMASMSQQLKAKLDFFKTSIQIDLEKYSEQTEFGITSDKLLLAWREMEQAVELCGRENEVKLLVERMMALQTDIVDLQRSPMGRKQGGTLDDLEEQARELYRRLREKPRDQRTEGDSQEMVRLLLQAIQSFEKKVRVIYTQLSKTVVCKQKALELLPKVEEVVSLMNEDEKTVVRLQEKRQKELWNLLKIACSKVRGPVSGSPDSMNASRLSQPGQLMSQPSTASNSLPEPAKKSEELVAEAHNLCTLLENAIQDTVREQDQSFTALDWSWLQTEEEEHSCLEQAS

[15] = target: Proto-oncogene tyrosine-protein kinase receptor Ret (Homo sapiens) (UniProt P07949); assay: RET Kinase screen; conditions: Compound concentration 1.0 uM
[16] = target: Cyclin-dependent kinase 1/cyclin B (Homo sapiens) (UniProt P06493+P14635+Q8WWL7+O95067); assay: CDK1/cyclin B Kinase screen; assay type: protein-complex assay; conditions: Compound concentration 1.0 uM

Measured: inhibition

Sequence of Mitogen-activated protein kinase 14 (Homo sapiens) (Q16539 whole entry): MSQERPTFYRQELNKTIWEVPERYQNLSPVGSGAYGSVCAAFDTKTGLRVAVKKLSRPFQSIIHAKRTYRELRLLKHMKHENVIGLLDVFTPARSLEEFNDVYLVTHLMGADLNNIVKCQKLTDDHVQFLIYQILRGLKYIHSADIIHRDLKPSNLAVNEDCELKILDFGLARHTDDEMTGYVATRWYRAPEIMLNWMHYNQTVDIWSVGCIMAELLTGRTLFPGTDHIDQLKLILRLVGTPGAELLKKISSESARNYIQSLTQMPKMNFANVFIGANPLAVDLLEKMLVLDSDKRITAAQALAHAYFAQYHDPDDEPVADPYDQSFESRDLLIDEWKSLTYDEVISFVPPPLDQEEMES
Sequence of Melanocortin receptor 3 (Homo sapiens) (P41968 whole entry): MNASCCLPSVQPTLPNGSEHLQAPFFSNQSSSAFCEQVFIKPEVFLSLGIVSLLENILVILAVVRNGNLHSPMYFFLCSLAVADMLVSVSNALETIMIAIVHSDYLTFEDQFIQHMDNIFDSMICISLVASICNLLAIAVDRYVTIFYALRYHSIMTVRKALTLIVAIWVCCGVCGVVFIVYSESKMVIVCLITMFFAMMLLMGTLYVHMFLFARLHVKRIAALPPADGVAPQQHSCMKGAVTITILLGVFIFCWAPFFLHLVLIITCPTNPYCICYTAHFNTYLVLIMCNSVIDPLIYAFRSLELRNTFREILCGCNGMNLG
Sequence of Histamine H1 receptor (Homo sapiens) (P35367 whole entry): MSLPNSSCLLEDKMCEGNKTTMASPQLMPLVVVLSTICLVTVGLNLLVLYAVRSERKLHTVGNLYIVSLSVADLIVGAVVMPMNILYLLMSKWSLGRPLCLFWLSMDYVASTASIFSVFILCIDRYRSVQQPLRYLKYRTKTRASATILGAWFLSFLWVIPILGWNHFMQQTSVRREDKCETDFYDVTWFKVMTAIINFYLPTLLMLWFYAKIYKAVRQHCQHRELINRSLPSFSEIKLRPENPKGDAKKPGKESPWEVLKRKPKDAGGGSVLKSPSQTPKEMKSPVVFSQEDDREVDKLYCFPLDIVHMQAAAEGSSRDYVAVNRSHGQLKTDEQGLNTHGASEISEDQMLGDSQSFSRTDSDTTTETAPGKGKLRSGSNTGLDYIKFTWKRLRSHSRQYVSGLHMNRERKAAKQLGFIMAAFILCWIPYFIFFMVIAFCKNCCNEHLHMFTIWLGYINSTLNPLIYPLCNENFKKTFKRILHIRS
Sequence of Dual specificity protein kinase CLK2 (Homo sapiens) (P49760 whole entry, looked up, canonical isoform): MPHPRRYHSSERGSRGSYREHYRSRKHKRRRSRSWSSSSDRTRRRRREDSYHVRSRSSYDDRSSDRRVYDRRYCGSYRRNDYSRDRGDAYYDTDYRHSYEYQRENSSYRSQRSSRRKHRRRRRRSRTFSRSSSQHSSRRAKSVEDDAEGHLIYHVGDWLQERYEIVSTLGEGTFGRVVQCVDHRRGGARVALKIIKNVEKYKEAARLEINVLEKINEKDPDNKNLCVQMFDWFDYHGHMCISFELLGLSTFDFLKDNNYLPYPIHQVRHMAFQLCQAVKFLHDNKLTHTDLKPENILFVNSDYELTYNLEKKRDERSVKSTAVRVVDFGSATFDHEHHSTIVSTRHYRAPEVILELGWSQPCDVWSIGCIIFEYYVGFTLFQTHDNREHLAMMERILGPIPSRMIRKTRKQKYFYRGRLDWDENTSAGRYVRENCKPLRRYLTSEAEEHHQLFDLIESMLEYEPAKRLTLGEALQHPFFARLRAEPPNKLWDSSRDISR
Sequence of Rho-associated protein kinase 1 (Homo sapiens) (Q13464 2-1354 limits assumed): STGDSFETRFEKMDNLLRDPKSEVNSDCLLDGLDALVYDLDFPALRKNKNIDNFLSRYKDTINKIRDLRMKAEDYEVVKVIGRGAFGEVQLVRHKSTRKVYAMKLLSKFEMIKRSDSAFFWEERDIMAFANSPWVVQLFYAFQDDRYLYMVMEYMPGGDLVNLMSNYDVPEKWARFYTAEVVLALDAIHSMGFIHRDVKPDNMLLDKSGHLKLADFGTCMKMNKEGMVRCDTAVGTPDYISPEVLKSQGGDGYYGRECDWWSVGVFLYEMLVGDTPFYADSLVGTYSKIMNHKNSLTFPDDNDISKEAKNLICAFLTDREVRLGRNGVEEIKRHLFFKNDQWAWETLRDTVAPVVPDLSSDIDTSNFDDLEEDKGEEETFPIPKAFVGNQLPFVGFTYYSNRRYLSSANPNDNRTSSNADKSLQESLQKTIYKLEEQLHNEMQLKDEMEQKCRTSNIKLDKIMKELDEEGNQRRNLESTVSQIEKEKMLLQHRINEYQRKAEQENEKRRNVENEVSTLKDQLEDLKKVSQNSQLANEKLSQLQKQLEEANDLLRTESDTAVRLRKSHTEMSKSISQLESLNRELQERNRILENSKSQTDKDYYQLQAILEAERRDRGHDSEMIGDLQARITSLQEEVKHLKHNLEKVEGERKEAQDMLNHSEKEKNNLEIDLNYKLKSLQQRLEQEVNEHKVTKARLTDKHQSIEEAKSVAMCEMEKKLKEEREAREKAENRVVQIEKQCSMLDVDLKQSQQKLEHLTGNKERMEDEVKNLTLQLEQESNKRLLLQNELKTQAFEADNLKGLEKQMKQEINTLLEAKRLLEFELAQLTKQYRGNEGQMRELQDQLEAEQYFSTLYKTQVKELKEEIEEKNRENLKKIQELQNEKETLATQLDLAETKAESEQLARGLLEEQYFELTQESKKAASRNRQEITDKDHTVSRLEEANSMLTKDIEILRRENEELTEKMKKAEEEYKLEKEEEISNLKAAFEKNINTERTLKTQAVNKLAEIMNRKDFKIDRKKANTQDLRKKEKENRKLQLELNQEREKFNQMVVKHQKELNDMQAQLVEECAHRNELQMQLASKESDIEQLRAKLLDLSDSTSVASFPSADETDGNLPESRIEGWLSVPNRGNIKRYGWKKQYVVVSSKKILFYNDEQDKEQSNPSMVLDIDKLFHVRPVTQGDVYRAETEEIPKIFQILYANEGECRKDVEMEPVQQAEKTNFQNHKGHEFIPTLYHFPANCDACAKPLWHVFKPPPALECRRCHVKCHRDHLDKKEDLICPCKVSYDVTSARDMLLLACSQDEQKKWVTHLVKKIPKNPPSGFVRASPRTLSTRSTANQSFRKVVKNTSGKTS
Sequence of Receptor tyrosine-protein kinase erbB-2 (Homo sapiens) (P04626 whole entry): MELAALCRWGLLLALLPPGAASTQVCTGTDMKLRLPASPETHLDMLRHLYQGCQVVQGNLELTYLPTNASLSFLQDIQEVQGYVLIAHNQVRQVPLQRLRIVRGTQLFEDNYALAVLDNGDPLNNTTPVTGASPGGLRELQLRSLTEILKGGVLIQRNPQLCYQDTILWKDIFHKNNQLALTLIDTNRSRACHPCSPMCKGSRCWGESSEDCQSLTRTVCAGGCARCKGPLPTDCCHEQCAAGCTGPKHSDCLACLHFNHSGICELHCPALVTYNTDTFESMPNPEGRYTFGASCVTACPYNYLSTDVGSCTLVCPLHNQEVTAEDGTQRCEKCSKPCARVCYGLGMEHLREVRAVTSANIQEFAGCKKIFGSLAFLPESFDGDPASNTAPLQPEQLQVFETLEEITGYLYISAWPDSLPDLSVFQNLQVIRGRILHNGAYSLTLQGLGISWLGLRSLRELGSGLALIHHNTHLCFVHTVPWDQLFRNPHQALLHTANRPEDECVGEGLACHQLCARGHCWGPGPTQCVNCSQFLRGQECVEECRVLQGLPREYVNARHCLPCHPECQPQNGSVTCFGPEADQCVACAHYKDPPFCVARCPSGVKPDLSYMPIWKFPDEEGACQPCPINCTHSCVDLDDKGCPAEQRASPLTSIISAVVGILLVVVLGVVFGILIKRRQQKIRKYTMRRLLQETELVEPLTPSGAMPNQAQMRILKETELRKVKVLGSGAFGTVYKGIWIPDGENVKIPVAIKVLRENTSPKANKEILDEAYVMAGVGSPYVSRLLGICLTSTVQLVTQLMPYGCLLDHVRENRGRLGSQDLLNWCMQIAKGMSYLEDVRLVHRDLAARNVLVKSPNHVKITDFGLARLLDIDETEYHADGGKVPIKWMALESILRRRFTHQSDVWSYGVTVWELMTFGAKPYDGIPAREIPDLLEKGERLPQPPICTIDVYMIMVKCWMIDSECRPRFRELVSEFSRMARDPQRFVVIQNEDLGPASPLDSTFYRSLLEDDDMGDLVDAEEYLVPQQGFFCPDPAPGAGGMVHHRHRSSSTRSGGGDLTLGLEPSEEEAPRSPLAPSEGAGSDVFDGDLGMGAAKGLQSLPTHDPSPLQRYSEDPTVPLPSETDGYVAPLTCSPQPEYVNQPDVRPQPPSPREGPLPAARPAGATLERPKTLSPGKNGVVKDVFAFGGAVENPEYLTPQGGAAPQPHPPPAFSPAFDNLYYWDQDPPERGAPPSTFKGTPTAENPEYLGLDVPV
Sequence of Phosphorylase b kinase gamma catalytic chain, skeletal muscle/heart isoform (Homo sapiens) (Q16816 whole entry, looked up, canonical isoform): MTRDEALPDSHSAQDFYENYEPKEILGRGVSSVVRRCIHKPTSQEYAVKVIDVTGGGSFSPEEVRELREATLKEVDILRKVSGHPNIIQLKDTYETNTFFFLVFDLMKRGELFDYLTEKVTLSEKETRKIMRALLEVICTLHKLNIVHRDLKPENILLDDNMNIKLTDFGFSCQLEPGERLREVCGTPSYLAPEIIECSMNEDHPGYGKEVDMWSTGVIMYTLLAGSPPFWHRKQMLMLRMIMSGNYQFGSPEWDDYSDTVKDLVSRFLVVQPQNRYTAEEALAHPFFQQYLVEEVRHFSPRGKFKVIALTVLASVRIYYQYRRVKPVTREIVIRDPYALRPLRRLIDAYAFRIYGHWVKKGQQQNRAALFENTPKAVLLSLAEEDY

C[C@@H]1CN(c2cc(-c3n[nH]c4ccc(OC5(C)CC5)cc34)ncn2)C[C@H](C)O1 [MLi-2]
inactive: [1] -2.46% | [2] 55% | [3] 0.801% | [4] 0.385% | [5] -2% | [6] -2.27% | [7] -1.02% | [8] -4% | [9] -0.899% | [10] -6.52% | [11] 21% | [12] 19% | [13] 9.35% | [14] -0.0171% | [15] 5.76% | [16] 1.29%
